Holding throughout (type): cell-based
Assay [1] has as its target T1, GIP receptor (Homo sapiens, UniProt P48546).
T1 sequence (P48546 22-466): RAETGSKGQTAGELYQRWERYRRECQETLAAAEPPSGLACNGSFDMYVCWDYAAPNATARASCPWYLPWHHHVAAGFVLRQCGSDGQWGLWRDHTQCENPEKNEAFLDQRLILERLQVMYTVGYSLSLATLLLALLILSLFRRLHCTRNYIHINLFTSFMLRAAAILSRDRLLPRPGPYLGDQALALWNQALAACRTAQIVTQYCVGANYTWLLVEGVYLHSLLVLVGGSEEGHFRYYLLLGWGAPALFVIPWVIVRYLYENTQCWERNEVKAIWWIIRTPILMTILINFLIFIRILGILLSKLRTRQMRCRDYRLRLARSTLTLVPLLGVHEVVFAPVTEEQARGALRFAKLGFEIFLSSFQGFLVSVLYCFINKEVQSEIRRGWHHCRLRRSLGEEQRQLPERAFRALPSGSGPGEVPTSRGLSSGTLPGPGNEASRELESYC
The experiment in a line: PathHunter β-arrestin assay, GIP receptor. The conditions noted are these: β-arrestin-2 recruitment, PathHunter CHO-K1 GIPR β-Arrestin Cell Line, 90 min at 37° C.; normalized to GIP; read-out: GIPR β Arrestin EC50. On the set-up: host or cells: PathHunter CHO-K1 GIPR β-Arrestin Cell Line.

The target of assay [2] is T1, GIP receptor. The experiment in a line: HitHunter cAMP assay, GIP receptor. The conditions noted are these: for pEC50: CHO cells stably expressing GIP receptor, cAMP accumulation, 30 min, read-out: EC50 GIP-1R; for Emax: CHO cells, cAMP, normalized to maximum signal from GIP (high) and DMSO (low), read-out: Emax GIP-1R.
In assay [3] the target is T2, GLP-1 receptor (Homo sapiens, UniProt P43220). The experiment in a line: PathHunter β-arrestin assay, GLP-1 receptor. Details: host or cells: PathHunter CHO-K1 GLP1R β-Arrestin Cell Line. The conditions noted are these: β-arrestin-2 recruitment, PathHunter CHO-K1 GLP1R β-Arrestin Cell Line, 90 min at 37° C.; normalized to GLP-1; read-out: GLP-1R β Arrestin EC50. A general note: Activated receptors often draw arrestin, which recruitment assays turn into a signal.

Assay [4] has as its target T2, GLP-1 receptor. The experiment in a line: HitHunter cAMP assay, GLP-1 receptor. The conditions noted are these: for pEC50: CHO cells stably expressing human GLP-1 receptor, cAMP accumulation, 30 min, read-out: EC50 GLP-1R; for Emax: CHO cells, cAMP, normalized to maximum signal from GLP-1 (high) and DMSO (low), read-out: Emax GLP-1R. A general note: Changes in cAMP serve as a functional read-out for many G protein-coupled receptors.

We go through two molecules from patent publication US12281149B2, “Modulators of G-protein coupled receptors” (priority 2021, dated 2025).

pEC50: −log10 of the molar value. *1 amine or outer side, *2 acyl side, *3 side chain or, on linkers, in order; H or OH if unused. Where a SMILES comes first, the peptide text is derived from it. Side-chain parts run from the residue outwards. [ ]: non-standard residue; d: D form. The star is where a group is joined. C20 diacid = O=C(O)CCCCCCCCCCCCCCCCCCC(=O)*; γGlu = O=C(O)[C@H](CCC(=O)[*:2])N[*:1]; X9 = CC(C)(C(=O)*)c1cc(F)cc(C(=O)O)c1; X72 = CC(C)(C(=O)*)c1cccc(Cl)c1F; AEEA = NCCOCCOCC(=O)O; Aib = CC(C)(N)C(=O)O; βAla = NCCC(=O)O

T2 sequence (P43220 24-463): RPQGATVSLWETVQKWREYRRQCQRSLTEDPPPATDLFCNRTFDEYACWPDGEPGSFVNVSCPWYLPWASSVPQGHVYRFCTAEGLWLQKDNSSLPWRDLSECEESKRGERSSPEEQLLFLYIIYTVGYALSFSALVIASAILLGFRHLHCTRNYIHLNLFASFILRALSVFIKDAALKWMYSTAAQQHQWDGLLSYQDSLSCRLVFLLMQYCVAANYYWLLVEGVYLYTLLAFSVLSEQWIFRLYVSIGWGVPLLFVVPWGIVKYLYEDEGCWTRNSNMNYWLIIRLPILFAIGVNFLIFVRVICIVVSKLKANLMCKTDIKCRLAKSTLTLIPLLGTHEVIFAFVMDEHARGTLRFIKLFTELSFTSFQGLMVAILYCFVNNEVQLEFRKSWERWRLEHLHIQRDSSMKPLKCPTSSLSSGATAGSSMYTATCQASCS

A word on the pEC50: it is −log10 of the EC50, conventionally taken in molar units. One may read the Emax as the maximal effect, on the per cent scale that the assay sets. As to `CC[C@H](C)[C@H](NC(=O)[C@H](CC(C)C)NC(=O)[C@H](Cc1c[nH]c2ccccc12)NC(=O)[C@H](CCC(N)=O)NC(=O)[C@@H](NC(=O)[C@H](Cc1ccccc1)NC(=O)[C@H](C)NC(=O)[C@H](CCCCNC(=O)COCCOCCNC(=O)COCCOCCNC(=O)CC[C@H](NC(=O)CCCCCCCCCCCCCCCCCCC(=O)O)C(=O)O)NC(=O)[C@H](CCC(N)=O)NC(=O)[C@H](C)NC(=O)[C@@H](NC(=O)[C@H](CCCCN)NC(=O)[C@H](CC(=O)O)NC(=O)[C@H](CC(C)C)NC(=O)C(C)(C)NC(=O)[C@@H](NC(=O)[C@H](CO)NC(=O)[C@H](Cc1ccc(O)cc1)NC(=O)[C@H](CC(=O)O)NC(=O)[C@H](CO)NC(=O)[C@@H](NC(=O)[C@H](Cc1ccccc1)NC(=O)[C@@H](NC(=O)CNC(=O)[C@H](CCC(=O)O)NC(=O)CCNC(=O)C(C)(C)c1cccc(Cl)c1F)[C@@H](C)O)[C@@H](C)O)[C@@H](C)CC)[C@@H](C)CC)C(C)C)C(=O)N[C@@H](C)C(=O)NCC(=O)NCC(=O)N1CCC[C@H]1C(=O)N[C@@H](CO)C(=O)N[C@@H](CO)C(=O)NCC(=O)N[C@@H](C)C(=O)N1CCC[C@H]1C(=O)N1CCC[C@H]1C(=O)N1CCC[C@H]1C(=O)N[C@@H](CO)C(N)=O` [Compound 219] ({X72-βAla}-EGTFTSDYSI[Aib]LDKIAQK([AEEA-AEEA-γGlu-C20 diacid])AFVQWLIAGGPSSGAPPPS-NH2), the pEC50 on GIP receptor [1] is more than 6.00; on GIP receptor [2], 9.00 to 10.00; at GLP-1 receptor [3] it was less than 6.00; at GLP-1 receptor [4], more than 10.00. The Emax on GIP receptor [2] was 106%; on GLP-1 receptor [4] it was 104%.

On to `CC[C@H](C)[C@H](NC(=O)[C@H](CC(C)C)NC(=O)[C@H](Cc1c[nH]c2ccccc12)NC(=O)[C@H](CCC(N)=O)NC(=O)[C@@H](NC(=O)[C@H](Cc1ccccc1)NC(=O)[C@H](C)NC(=O)[C@H](CCCCNC(=O)COCCOCCNC(=O)COCCOCCNC(=O)CC[C@H](NC(=O)CCCCCCCCCCCCCCCCCCC(=O)O)C(=O)O)NC(=O)[C@H](CCC(N)=O)NC(=O)[C@H](C)NC(=O)[C@@H](NC(=O)[C@H](CCCCN)NC(=O)[C@H](CC(=O)O)NC(=O)[C@H](CC(C)C)NC(=O)C(C)(C)NC(=O)[C@@H](NC(=O)[C@H](CO)NC(=O)[C@H](Cc1ccc(O)cc1)NC(=O)[C@H](CC(=O)O)NC(=O)[C@H](CO)NC(=O)[C@@H](NC(=O)[C@H](Cc1ccccc1)NC(=O)[C@@H](NC(=O)CNC(=O)[C@H](CCC(=O)O)NC(=O)CCNC(=O)C(C)(C)c1cc(F)cc(C(=O)O)c1)[C@@H](C)O)[C@@H](C)O)[C@@H](C)CC)[C@@H](C)CC)C(C)C)C(=O)N[C@@H](C)C(=O)NCC(=O)NCC(=O)N1CCC[C@H]1C(=O)N[C@@H](CO)C(=O)N[C@@H](CO)C(=O)NCC(=O)N[C@@H](C)C(=O)N1CCC[C@H]1C(=O)N1CCC[C@H]1C(=O)N1CCC[C@H]1C(=O)N[C@@H](CO)C(N)=O` [Compound 139] ({X9-βAla}-EGTFTSDYSI[Aib]LDKIAQK([AEEA-AEEA-γGlu-C20 diacid])AFVQWLIAGGPSSGAPPPS-NH2), for which the pEC50 at GIP receptor [1] is less than 6.00; at GIP receptor [2] it was 7.00 to 8.00; on GLP-1 receptor [3], less than 6.00; at GLP-1 receptor [4] it was 8.00 to 9.00. Moreover, the maximum response (Emax) came to 109% at GIP receptor [2] and 102% at GLP-1 receptor [4].
